Measurements published in US20030229053A1, “Compounds and methods for the treatment or prevention of flavivirus infections” (Shire BioChem Inc., priority 2001, published 2003).
pIC50: −log10 of the molar value.

Molecular target: HCV NS5B RNA-dependent RNA polymerase (Hepatitis C virus genotype 1b, UniProt P26663)
Experiment: In vitro RNA-dependent RNA polymerase assay (Assay 1), polyA/oligo dT, TCA precipitation
Format: biochemical
Settings: polyA/oligo dT template/primer, 200 ng NS5B, 2 h at 22° C.; read-out: RNA pol Assay 1 IC50 (μm)
Protocol: Purification of Recombinant NS5B Using Fast Protein Liquid Chromatography (FPLC):
Soluble NS5B protein in the S3 fraction was diluted to lower the NaCl concentration to 300 mM, then it incubated batchwise with DEAE sepharose beads (Amersham-Pharmacia) for 2 hrs at 4° C., as described by Behrens et al. (1996). Unbound material was cleared by centrifugation for 15 min at 4° C., at 25,000 rpm using a SW41 rotor (Beckman). The supernatant was further diluted to lower the NaCl concentration to 200 mM and subsequently loaded, with a flow rate of 1 ml/min, on a 5 ml HiTrap® heparin column (Amersham-Pharmacia) connected to an FPLC® system (Amersham-Pharmacia). Bound proteins were eluted in 1 ml fractions, using a continuous NaCl gradient of 0.2 to 1 M, over a 25 ml volume. NS5B-containing fractions were identified by sodium dodecyl sulfate polyacrylamide gel electrophoresis (SDS-PAGE), followed by western blotting using the anti-NS5B antiserum at a dilution of 1:2000. Positive fractions were pooled and the elution buffer was exchanged against a 50 mM NaPO4 pH 7.0, 20% glycerol, 0.5% triton X-100 and 10 mM DTT, using a PD-10 column (Amersham-Pharmacia). The sample was then loaded onto a 1 ml HiTrap® SP column (Amersham-Pharmacia), with a flow rate of 0.1 ml/min. Bound proteins were eluted using a continuous 0 to 1 M NaCl gradient over a 15 ml volume. Eluted fractions were analyzed by SDS-PAGE and western blotting. Alternatively, proteins were visualized, following SDS-PAGE, by silver staining using the Silver Stain Plus kit (BioRad) as described by the manufacturer. […]
In vitro RNA-dependent RNA Polymerase Assays Used to Evaluate Biaryl Analogues (Assay 1):
RdRp assays were conducted using the homopolymeric template/primer polyA/oligo dT. All RdRp reactions were performed in a total volume of 50 μl, and in a basic buffer consisting of 20 mM Tris-HCl pH 7.5, 1 mM DTT, 50 mM NaCl, 5 mM MgCl2, 0.5 μCi […] (3000 Ci/mmol), 15 μM cold UTP and 20 U RNasin (Promega). Standard HCV RdRp reactions contained 200 ng of purified NS5B protein. PolyA RNAs (Amersham-Pharmacia) was resuspended at 400 ng/μl. The primer oligodT15 (Canadian life technologies) was diluted to a concentration of […] (7.6 ng/μl). Templates and primers were mixed volume to volume, denatured at 95° C. for 5 min and annealed at 37° C. for 10 min. Following a two hour incubation at 22° C., reactions were stopped by the addition of 100 μg of sonicated salmon sperm DNA (Life Technologies) and 1 ml of 10% trichloroacetic acid-0.5% tetrasodium pyrophosphate (TCA-PPi). Nucleic acids were precipitated at 4° C. for 30 min after which samples were filtered on GF/C glass microfiber filters (Millipore). Membranes were subsequently washed with 25 ml of a 1% TCA-0.1% PPi solution, then air dried. Incorporated radioactivity was quantified using a liquid scintillation counter (1450-Microbeta, Wallac). Results are shown in Table 1, in the column indicated as Assay 1.

HCV NS5B RNA-dependent RNA polymerase, sequence (P26663 2420-3010 limits assumed): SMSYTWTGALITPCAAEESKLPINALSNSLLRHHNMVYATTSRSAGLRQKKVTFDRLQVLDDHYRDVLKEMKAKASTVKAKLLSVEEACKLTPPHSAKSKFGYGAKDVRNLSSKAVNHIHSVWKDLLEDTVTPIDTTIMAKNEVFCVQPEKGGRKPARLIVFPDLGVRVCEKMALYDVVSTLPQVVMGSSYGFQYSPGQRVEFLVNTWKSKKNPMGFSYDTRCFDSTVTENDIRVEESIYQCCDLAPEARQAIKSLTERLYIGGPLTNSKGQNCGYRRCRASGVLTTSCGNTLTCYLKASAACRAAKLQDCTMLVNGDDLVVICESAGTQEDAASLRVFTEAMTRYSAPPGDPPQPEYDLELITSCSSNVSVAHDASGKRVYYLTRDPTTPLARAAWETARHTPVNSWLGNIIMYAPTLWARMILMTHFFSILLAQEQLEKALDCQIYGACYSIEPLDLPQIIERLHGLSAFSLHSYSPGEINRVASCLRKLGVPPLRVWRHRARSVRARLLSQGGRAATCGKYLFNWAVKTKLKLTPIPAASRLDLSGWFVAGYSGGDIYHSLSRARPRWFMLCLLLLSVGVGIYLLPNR

SMILES | pIC50
O=C(O)[C@H](Cc1ccccc1)N(Cc1ccc(-c2ccccc2[N+](=O)[O-])o1)C(=O)c1ccc(Cl)cc1Cl [compound #62, (2s)-2-{(2,4-Dichloro-benzoyl)-[5-(2-nitro-phenyl)-furan-2-ylmethyl]-amino}-3-phenyl-propionic acid] | > 5.30
O=C(O)[C@H](Cc1ccccc1)N(Cc1ccc(-c2ccc(Cl)cc2Cl)o1)C(=O)c1ccc(Cl)cc1Cl [compound #67, (2s)-2-{(2,4-Dichloro-benzoyl)-[5-(2,4-dichloro-phenyl)-furan-2-ylmethyl]-amino}-3-phenyl-propionic acid] | > 5.30
O=C(O)[C@H](Cc1ccccc1)N(Cc1ccc(Br)o1)C(=O)c1ccc(Cl)cc1Br [compound #68, (2s)-2-[(2-Bromo-4-chloro-benzoyl)-(5-bromo-furan-2-ylmethyl)-amino]-3-phenyl-propionic acid] | > 5.30
O=C(O)[C@H](Cc1ccccc1)N(Cc1ccc(Br)o1)C(=O)c1ccc(Cl)cc1I [compound #71, (2s)-2-[(5-Bromo-furan-2-ylmethyl)-(4-chloro-2-iodo-benzoyl)-amino]-3-phenyl-propionic acid] | > 5.30
CCOC(=O)c1ccccc1-c1ccc(CN(C(=O)c2ccc(Cl)cc2Cl)[C@@H](Cc2ccccc2)C(=O)O)o1 [compound #72, (2s)-2-(5-{[(1s-1-Carboxy-2-phenyl-ethyl)-(2,4-dichloro-benzoyl)-amino]-methyl}-furan-2-yl)-benzoic acid ethyl ester] | > 5.30
O=C(O)c1ccccc1-c1ccc(CN(C(=O)c2ccc(Cl)cc2Cl)[C@@H](Cc2ccccc2)C(=O)O)o1 [compound #73, (2s)-2-(5-{[(1-Carboxy-2-phenyl-ethyl)-(2,4-dichloro-benzoyl)-amino]-methyl}-furan-2-yl)-benzoic acid] | > 5.30

Second part, the compound after the results:

pIC50 | SMILES
> 5.30 | O=C(O)[C@H](Cc1ccccc1)N(Cc1ccc(-c2ccc(Br)cc2)o1)C(=O)c1ccc(Cl)cc1Cl [compound #59, (2s)-2-[[5-(4-Bromo-phenyl)-furan-2-ylmethyl]-(2,4-dichloro-benzoyl)-amino]-3-phenyl-propionic acid]
> 5.30 | O=C(O)[C@H](Cc1ccccc1)N(Cc1ccc(-c2ccccc2Cl)o1)C(=O)c1ccc(Cl)cc1Cl [compound #60, (2s)-2-[[5-(2-Chloro-phenyl)-furan-2-ylmethyl]-(2,4-dichloro-benzoyl)-amino]-3-phenyl-propionic acid]
> 5.30 | O=C(O)[C@H](Cc1ccccc1)N(Cc1ccc(-c2cc(C(F)(F)F)ccc2Cl)o1)C(=O)c1ccc(Cl)cc1Cl [compound #61, (2s)-2-[[5-(2-Chloro-5-trifluoromethyl-phenyl)-furan-2-ylmethyl]-(2,4-dichloro-benzoyl)-amino]-3-phenyl-propionic acid]
> 5.30 | O=C(O)C[C@H](Cc1ccccc1)N(Cc1ccc(-c2cccc(C(F)(F)F)c2)o1)C(=O)c1ccc(Cl)cc1Cl [compound #63, (3s)-3-{(2,4-Dichloro-benzoyl)-[5-(3-trifluoromethyl-phenyl)-furan-2-ylmethyl]-amino}-4-phenyl-butyric acid]
> 5.30 | O=C(O)[C@H](Cc1ccccc1)N(Cc1ccc(-c2ccc(Cl)c(Cl)c2)o1)C(=O)c1ccc(Cl)cc1Cl [compound #65, (2s)-2-{(2,4-Dichloro-benzoyl)-[5-(3,4-dichloro-phenyl)-furan-2-ylmethyl]-amino}-3-phenyl-propionic acid]
> 5.30 | O=C(O)[C@H](Cc1ccccc1)N(Cc1ccc(-c2ccc(F)c(Cl)c2)o1)C(=O)c1ccc(Cl)cc1Cl [compound #69, (2s)-2-[[5-(3-Chloro-4-fluoro-phenyl)-furan-2-ylmethyl]-(2,4-dichloro-benzoyl)-amino]-3-phenyl-propionic acid]
> 5.30 | O=C(O)[C@H](Cc1ccccc1)N(Cc1ccc(-c2ccc(Cl)c(F)c2)o1)C(=O)c1ccc(Cl)cc1Cl [compound #70, (2s)-2-[[5-(4-Chloro-3-fluoro-phenyl)-furan-2-ylmethyl]-(2,4-dichloro-benzoyl)-amino]-3-phenyl-propionic acid]
